Measurements taken from the NIST ThermoML archive (doi:10.1016/j.jct.2003.11.008).
± gives the expanded uncertainty stated by the source.

Experiments:
[1] = xn = mol fraction of the nth substance listed; conditions: 318.15 K, 101.3 kPa, Liquid
[2] = excess molar enthalpy (molar enthalpy of mixing); xn = mol fraction of the nth substance listed; conditions: 318.15 K, 101.3 kPa, Liquid

CCCCCCCCCCCCCCC [pentadecane] + CCCOC(C)=O
Conditions	excess molar enthalpy [kcal/mol]	excess molar volume [m3/mol]
[1], x2 = 0.0878	–	3.42e-07 ± 1.7e-08
[1], x2 = 0.1416	–	5.35e-07 ± 1.8e-08
[1], x2 = 0.2112	–	7.4e-07 ± 1.9e-08
[1], x2 = 0.3035	–	9.75e-07 ± 2e-08
[1], x2 = 0.3749	–	1.102e-06 ± 2.1e-08
[1], x2 = 0.4446	–	1.188e-06 ± 2.1e-08
[1], x2 = 0.5048	–	1.254e-06 ± 2.1e-08
[1], x2 = 0.5631	–	1.259e-06 ± 2.1e-08
[1], x2 = 0.6193	–	1.238e-06 ± 2.1e-08
[1], x2 = 0.6657	–	1.213e-06 ± 2.1e-08
[1], x2 = 0.742	–	1.093e-06 ± 2.1e-08
[1], x2 = 0.8073	–	9.36e-07 ± 2e-08
[1], x2 = 0.8769	–	6.9e-07 ± 1.9e-08
[1], x2 = 0.9297	–	4.51e-07 ± 1.8e-08
[1], x2 = 0.9673	–	2.26e-07 ± 1.7e-08
[2], x2 = 0.1056	0.137 ± 0.00263	–
[2], x2 = 0.1903	0.23 ± 0.00406	–
[2], x2 = 0.2687	0.303 ± 0.00502	–
[2], x2 = 0.3385	0.354 ± 0.00598	–
[2], x2 = 0.4042	0.389 ± 0.00645	–
[2], x2 = 0.4596	0.409 ± 0.00669	–
[2], x2 = 0.5101	0.421 ± 0.00693	–
[2], x2 = 0.5521	0.421 ± 0.00693	–
[2], x2 = 0.5935	0.416 ± 0.00693	–
[2], x2 = 0.634	0.405 ± 0.00669	–
[2], x2 = 0.674	0.389 ± 0.00645	–
[2], x2 = 0.715	0.369 ± 0.00598	–
[2], x2 = 0.7583	0.339 ± 0.00574	–
[2], x2 = 0.8027	0.301 ± 0.00502	–
[2], x2 = 0.8473	0.254 ± 0.0043	–
[2], x2 = 0.8921	0.193 ± 0.00335	–
[2], x2 = 0.9369	0.126 ± 0.00234	–
[2], x2 = 0.9732	0.0589 ± 0.00134	–

CCCCCCCCCCCCC [tridecane] + CCCOC(C)=O
Conditions	excess molar enthalpy [kcal/mol]	excess molar volume [m3/mol]
[1], x2 = 0.1139	–	4.77e-07 ± 1.8e-08
[1], x2 = 0.1844	–	7.09e-07 ± 1.9e-08
[1], x2 = 0.2748	–	9.32e-07 ± 2e-08
[1], x2 = 0.3425	–	1.072e-06 ± 2e-08
[1], x2 = 0.4123	–	1.16e-06 ± 2.1e-08
[1], x2 = 0.4772	–	1.205e-06 ± 2.1e-08
[1], x2 = 0.5337	–	1.232e-06 ± 2.1e-08
[1], x2 = 0.5864	–	1.216e-06 ± 2.1e-08
[1], x2 = 0.6311	–	1.183e-06 ± 2.1e-08
[1], x2 = 0.6791	–	1.139e-06 ± 2.1e-08
[1], x2 = 0.722	–	1.069e-06 ± 2e-08
[1], x2 = 0.7535	–	1.012e-06 ± 2e-08
[1], x2 = 0.7862	–	9.31e-07 ± 2e-08
[1], x2 = 0.8631	–	6.98e-07 ± 1.9e-08
[1], x2 = 0.9199	–	4.58e-07 ± 1.8e-08
[1], x2 = 0.9642	–	2.27e-07 ± 1.7e-08
[2], x2 = 0.087	0.103 ± 0.00198	–
[2], x2 = 0.1659	0.187 ± 0.00335	–
[2], x2 = 0.2413	0.26 ± 0.0043	–
[2], x2 = 0.3093	0.312 ± 0.00526	–
[2], x2 = 0.3709	0.349 ± 0.00574	–
[2], x2 = 0.4257	0.372 ± 0.00621	–
[2], x2 = 0.477	0.386 ± 0.00645	–
[2], x2 = 0.5193	0.39 ± 0.00645	–
[2], x2 = 0.5602	0.391 ± 0.00645	–
[2], x2 = 0.6296	0.379 ± 0.00621	–
[2], x2 = 0.6706	0.367 ± 0.00598	–
[2], x2 = 0.716	0.346 ± 0.00574	–
[2], x2 = 0.7628	0.317 ± 0.00526	–
[2], x2 = 0.809	0.272 ± 0.00454	–
[2], x2 = 0.8594	0.218 ± 0.00382	–
[2], x2 = 0.9097	0.158 ± 0.00287	–
[2], x2 = 0.9585	0.0781 ± 0.00163	–

CCCCCOC(C)=O [pentyl ethanoate] + CCCCCCCCCCC
Conditions	excess molar enthalpy [kcal/mol]	excess molar volume [m3/mol]
[1], x1 = 0.0737	–	2.57e-07 ± 1.7e-08
[1], x1 = 0.1355	–	4.05e-07 ± 1.7e-08
[1], x1 = 0.2015	–	5.38e-07 ± 1.8e-08
[1], x1 = 0.2641	–	6.43e-07 ± 1.8e-08
[1], x1 = 0.3197	–	7.07e-07 ± 1.9e-08
[1], x1 = 0.3776	–	7.48e-07 ± 1.9e-08
[1], x1 = 0.4395	–	7.8e-07 ± 1.9e-08
[1], x1 = 0.4861	–	7.92e-07 ± 1.9e-08
[1], x1 = 0.5386	–	7.87e-07 ± 1.9e-08
[1], x1 = 0.5852	–	7.75e-07 ± 1.9e-08
[1], x1 = 0.6345	–	7.38e-07 ± 1.9e-08
[1], x1 = 0.6828	–	6.92e-07 ± 1.9e-08
[1], x1 = 0.713	–	6.43e-07 ± 1.8e-08
[1], x1 = 0.8089	–	4.89e-07 ± 1.8e-08
[1], x1 = 0.8864	–	3.26e-07 ± 1.7e-08
[1], x1 = 0.9483	–	1.64e-07 ± 1.6e-08
[2], x1 = 0.083	0.0857 ± 0.0017	–
[2], x1 = 0.1513	0.138 ± 0.00263	–
[2], x1 = 0.225	0.185 ± 0.00335	–
[2], x1 = 0.2965	0.221 ± 0.00382	–
[2], x1 = 0.3642	0.246 ± 0.0043	–
[2], x1 = 0.4271	0.259 ± 0.0043	–
[2], x1 = 0.4836	0.264 ± 0.00454	–
[2], x1 = 0.5356	0.262 ± 0.0043	–
[2], x1 = 0.5749	0.254 ± 0.0043	–
[2], x1 = 0.6055	0.246 ± 0.0043	–
[2], x1 = 0.6529	0.23 ± 0.00406	–
[2], x1 = 0.7058	0.209 ± 0.00359	–
[2], x1 = 0.7614	0.182 ± 0.00311	–
[2], x1 = 0.8186	0.15 ± 0.00263	–
[2], x1 = 0.8782	0.108 ± 0.00206	–
[2], x1 = 0.9384	0.0617 ± 0.00134	–

CCCCCCCCCCCCCCCCC [heptadecane] + CCOC(C)=O
Conditions	excess molar enthalpy [kcal/mol]	excess molar volume [m3/mol]
[1], x2 = 0.1461	–	6.4e-07 ± 1.8e-08
[1], x2 = 0.2562	–	1.04e-06 ± 2e-08
[1], x2 = 0.3512	–	1.284e-06 ± 2.1e-08
[1], x2 = 0.4324	–	1.449e-06 ± 2.2e-08
[1], x2 = 0.5057	–	1.538e-06 ± 2.3e-08
[1], x2 = 0.5143	–	1.548e-06 ± 2.3e-08
[1], x2 = 0.5756	–	1.565e-06 ± 2.3e-08
[1], x2 = 0.5814	–	1.562e-06 ± 2.3e-08
[1], x2 = 0.6778	–	1.503e-06 ± 2.2e-08
[1], x2 = 0.7269	–	1.41e-06 ± 2.2e-08
[1], x2 = 0.7898	–	1.273e-06 ± 2.1e-08
[1], x2 = 0.8421	–	1.081e-06 ± 2.1e-08
[1], x2 = 0.903	–	7.83e-07 ± 1.9e-08
[1], x2 = 0.9457	–	5.1e-07 ± 1.8e-08
[1], x2 = 0.9685	–	3.18e-07 ± 1.7e-08
[2], x2 = 0.0911	0.136 ± 0.00239	–
[2], x2 = 0.1754	0.245 ± 0.0043	–
[2], x2 = 0.2543	0.345 ± 0.00574	–
[2], x2 = 0.3274	0.415 ± 0.00669	–
[2], x2 = 0.394	0.467 ± 0.00765	–
[2], x2 = 0.4566	0.506 ± 0.00813	–
[2], x2 = 0.512	0.525 ± 0.0086	–
[2], x2 = 0.558	0.534 ± 0.0086	–
[2], x2 = 0.6007	0.531 ± 0.0086	–
[2], x2 = 0.634	0.523 ± 0.00837	–
[2], x2 = 0.6486	0.519 ± 0.00837	–
[2], x2 = 0.6818	0.504 ± 0.00813	–
[2], x2 = 0.7172	0.485 ± 0.00789	–
[2], x2 = 0.7538	0.463 ± 0.00765	–
[2], x2 = 0.7913	0.426 ± 0.00693	–
[2], x2 = 0.8271	0.392 ± 0.00645	–
[2], x2 = 0.8653	0.342 ± 0.00574	–
[2], x2 = 0.9018	0.287 ± 0.00478	–
[2], x2 = 0.9382	0.22 ± 0.00382	–
[2], x2 = 0.9719	0.121 ± 0.00232	–
